Measured values: ChEMBL document CHEMBL5696443 (Clin Cancer Res, 2016)
Activity calls are given as the source filed them. No cut-off for these calls is given here.

Tests used:
BaF3 [1] = assay: Antitumor activity against mouse BaF3 cells expressing native EML4-ALK implanted in mouse assessed as tumor regression at 60 mg/kg, po administered once daily and measured after 8 days relative to control; assay type: functional; settings: time 8 day
[2] = Average plasma concentration in CB-17/SCID mouse implanted with mouse BaF3 cells expressing EML4-ALK G1202R mutant at 60 mg/kg, po administered once daily for 7 days by LC-MS/MS analysis; assay type: ADME, organism-based; settings: in vivo, 168 h, time 7 day
[3] = Toxicity in CB-17/SCID mouse implanted with ALK positive mouse BaF3 cells expressing EML4-ALK G1202R mutant assessed as effect on body weight at 60 mg/kg, po administered once daily and measured after 6 days; assay type: organism-based; settings: in vivo, 144 h, time 6 day
[4] = Protein binding in human plasma at 600 mg, administered twice a day; assay type: ADME, cell-free; settings: read-out: PPB (converted)
[5] = Protein binding in human plasma assessed as unbound fraction at 600 mg, administered twice a day; assay type: ADME, cell-free
in vitro = settings: mouse, BaF3 cells
BaF3 [6] = assay: animal or person; settings: Mus musculus, BaF3, po, 192 h, read-out: TGI
BaF3 [7] = assay: Antitumor activity against mouse BaF3 cells expressing native EML4-ALK implanted in mouse assessed as tumor growth inhibition at 50 mg/kg, po administered once daily and measured after 8 days relative to control; assay type: functional; settings: BaF3, 192 h, time 8 day, read-out: TGI
[8] = Toxicity in CB-17/SCID mouse implanted with ALK positive mouse BaF3 cells expressing EML4-ALK G1202R mutant assessed as effect on body weight at 50 mg/kg, po administered once daily and measured after 6 days; assay type: organism-based; settings: in vivo, 144 h, time 6 day
[9] = Protein binding in human plasma at 750 mg, administered once a day; assay type: ADME, cell-free; settings: read-out: PPB (converted)
[10] = Protein binding in human plasma assessed as unbound fraction at 750 mg, administered once a day; assay type: ADME, cell-free
[11] = tested on: EML4-ALK (Homo sapiens), Q9UM73+Q9HC35 [L1152R]; settings: BaF3, time 3-5 weeks
[12] = tested on: EML4-ALK (Homo sapiens), Q9UM73+Q9HC35 [L1152P]; settings: BaF3, time 3-5 weeks
[13] = tested on: EML4-ALK (Homo sapiens), Q9UM73+Q9HC35 [F1174C]; settings: BaF3, time 3-5 weeks
[14] = tested on: EML4-ALK (Homo sapiens), Q9UM73+Q9HC35 [L1198F]; settings: BaF3, time 3-5 weeks
[15] = tested on: EML4-ALK (Homo sapiens), Q9UM73+Q9HC35 [G1202R]; settings: BaF3, time 3-5 weeks
[16] = tested on: EML4-ALK (Homo sapiens), Q9UM73+Q9HC35 [S1206F]; settings: BaF3, time 3-5 weeks
[17] = tested on: EML4-ALK (Homo sapiens), Q9UM73+Q9HC35 [S1206Y]; settings: BaF3, time 3-5 weeks
[18] = tested on: EML4-ALK (Homo sapiens), Q9UM73+Q9HC35 [L1196M]; settings: BaF3, dose 1000.0 nmol/L, time 3-5 weeks
[19] = tested on: EML4-ALK (Homo sapiens), Q9UM73+Q9HC35 [F1174C]; settings: BaF3, dose 200.0 nmol/L, time 3-5 weeks
[20] = tested on: EML4-ALK (Homo sapiens), Q9UM73+Q9HC35 [F1174V]; settings: BaF3, dose 200.0 nmol/L, time 3-5 weeks
[21] = tested on: EML4-ALK (Homo sapiens), Q9UM73+Q9HC35 [F1174I]; settings: BaF3, dose 200.0 nmol/L, time 3-5 weeks
[22] = tested on: EML4-ALK (Homo sapiens), Q9UM73+Q9HC35 [S1206A]; settings: BaF3, dose 200.0 nmol/L, time 3-5 weeks
[23] = tested on: EML4-ALK (Homo sapiens), Q9UM73+Q9HC35 [L1198F]; settings: BaF3, dose 200.0 nmol/L, time 3-5 weeks
[24] = tested on: EML4-ALK (Homo sapiens), Q9UM73+Q9HC35 [L1198F]; settings: BaF3, dose 500.0 nmol/L, time 3-5 weeks
[25] = tested on: EML4-ALK (Homo sapiens), Q9UM73+Q9HC35 [I1171N]; settings: BaF3, dose 1000.0 nmol/L, time 3-5 weeks
[26] = tested on: EML4-ALK (Homo sapiens), Q9UM73+Q9HC35 [UNDEFINED MUTATION]; settings: BaF3, dose 1000.0 nmol/L, time 3-5 weeks
[27] = tested on: EML4-ALK (Homo sapiens), Q9UM73+Q9HC35 [L1152R]; settings: BaF3, dose 1000.0 nmol/L, time 3-5 weeks
[28] = tested on: EML4-ALK (Homo sapiens), Q9UM73+Q9HC35 [L1152P]; settings: BaF3, dose 1000.0 nmol/L, time 3-5 weeks
[29] = tested on: EML4-ALK (Homo sapiens), Q9UM73+Q9HC35 [C1156Y]; settings: BaF3, dose 1000.0 nmol/L, time 3-5 weeks
[30] = tested on: EML4-ALK (Homo sapiens), Q9UM73+Q9HC35 [F1174C]; settings: BaF3, dose 1000.0 nmol/L, time 3-5 weeks
[31] = tested on: EML4-ALK (Homo sapiens), Q9UM73+Q9HC35 [F1174L]; settings: BaF3, dose 1000.0 nmol/L, time 3-5 weeks
[32] = tested on: EML4-ALK (Homo sapiens), Q9UM73+Q9HC35 [F1174V]; settings: BaF3, dose 1000.0 nmol/L, time 3-5 weeks
[33] = tested on: EML4-ALK (Homo sapiens), Q9UM73+Q9HC35 [V1180L]; settings: BaF3, dose 1000.0 nmol/L, time 3-5 weeks
[34] = tested on: EML4-ALK (Homo sapiens), Q9UM73+Q9HC35 [L1198F]; settings: BaF3, dose 1000.0 nmol/L, time 3-5 weeks
[35] = tested on: EML4-ALK (Homo sapiens), Q9UM73+Q9HC35 [G1202R]; settings: BaF3, dose 1000.0 nmol/L, time 3-5 weeks
[36] = tested on: EML4-ALK (Homo sapiens), Q9UM73+Q9HC35 [D1203N]; settings: BaF3, dose 1000.0 nmol/L, time 3-5 weeks
[37] = tested on: EML4-ALK (Homo sapiens), Q9UM73+Q9HC35 [S1206F]; settings: BaF3, dose 1000.0 nmol/L, time 3-5 weeks
[38] = tested on: EML4-ALK (Homo sapiens), Q9UM73+Q9HC35 [S1206Y]; settings: BaF3, dose 1000.0 nmol/L, time 3-5 weeks
[39] = tested on: EML4-ALK (Homo sapiens), Q9UM73+Q9HC35 [E1210K]; settings: BaF3, dose 1000.0 nmol/L, time 3-5 weeks
[40] = tested on: EML4-ALK (Homo sapiens), Q9UM73+Q9HC35 [G1269A]; settings: BaF3, dose 1000.0 nmol/L, time 3-5 weeks
BaF3 [41] = assay: animal or person; settings: Mus musculus, BaF3, po, 192 h, read-out: TGI; remark: listed apart in the source

Structure (SMILES): CCc1cc2c(cc1N1CCC(N3CCOCC3)CC1)C(C)(C)c1[nH]c3cc(C#N)ccc3c1C2=O [ALECTINIB]
- Activity (BaF3 [1]): 95%
- Cave [2]: 8.817 µM
- Activity [3]: Non-Toxic
- fraction unbound [4]: 0.003
- fraction unbound [5]: 0.003
- IC50 (in vitro): 2070 nM
- IC90 (in vitro): 7460 nM
- inhibition in vivo at 60 mg/kg (BaF3 [6]): 0%

Structure (SMILES): Cc1cc(Nc2ncc(Cl)c(Nc3ccccc3S(=O)(=O)C(C)C)n2)c(OC(C)C)cc1C1CCNCC1 [CERITINIB]
- inhibition in vivo at 50 mg/kg (BaF3 [7]): 97%
- Activity [8]: Non-Toxic
- fraction unbound [9]: 0.028
- fraction unbound [10]: 0.028
- IC90 [11]: 1270 nM
- IC90 [12]: 1230 nM
- IC90 [13]: 229 nM
- IC90 [14]: 1320 nM
- IC90 [15]: 1040 nM
- IC90 [16]: 99 nM
- IC90 [17]: 99 nM
- inhibition [18]: Active
- inhibition [19]: inactive
- inhibition [20]: inactive
- inhibition [21]: inactive
- inhibition [22]: inactive
- inhibition [23]: inactive
- inhibition [24]: inactive
- inhibition [25]: Active
- inhibition [26]: Active
- inhibition [27]: Active
- inhibition [28]: Active
- inhibition [29]: Active
- inhibition [30]: Active
- inhibition [31]: Active
- inhibition [32]: Active
- inhibition [33]: Active
- inhibition [34]: Active
- inhibition [35]: Active
- inhibition [36]: Active
- inhibition [37]: Active
- inhibition [38]: Active
- inhibition [39]: Active
- inhibition [40]: Active
- IC50 (in vitro): 1670 nM
- IC90 (in vitro): 2840 nM
- inhibition in vivo at 50 mg/kg (BaF3 [41]): 14%
